Where “and” joins values, the source holds several entries; their conditions need not be identical. Equal values may be shown once.
Test: PK of compound of Formula (Ia) after single subcutaneous dose of solution formulations in Wistar Han rats
Assay type: in vivo
Settings: SC 50 mg/kg; for concentration at 1 h / concentration at 3 h / concentration at 8 h: male, Wistar Han, rat, plasma, sc
Experimental: Formulations containing the compound of Formula (Ia), or a pharmaceutically acceptable salt thereof, were prepared as solutions and optionally administered subcutaneously or intramuscularly to rats, rabbits, and/or dogs.
A solution of about 400 mg/mL of the compound of Formula (Ia) having 19.14 w/w % water, 40.66 w/w % PEG 300, 35.20 w/w % of a sodium salt of a compound of Formula (Ia), and 5.00% ethanol was prepared. The solution was administered subcutaneously to male Wistar Han rats at a dose level of about 50 mg/kg and dose volume of 0.125 mL/kg and the pharmacokinetic (PK) profile was determined.
A solution of about 500 mg/mL of the compound of Formula (Ia) having 16.64 w/w % water, 35.36 w/w % PEG 300, 43.00 w/w % of a sodium salt of a compound of Formula (Ia), and 5.00% ethanol was prepared. The solution was administered subcutaneously to male Wistar Han rats at a dose level of about 50 mg/kg and dose volume of 0.1 mL/kg and the pharmacokinetic (PK) profile was determined.
A solution of about 400 mg/mL of the compound of Formula (Ia) having 17.00 w/w % water, 36.40 w/w % PEG 300, 35.20 w/w % of a sodium salt of a compound of Formula (Ia), 5.00 w/w % ethanol, and 6.40 w/w % poloxamer 188 was prepared. The solution was administered subcutaneously to male beagle dogs at a dose level of about 12 mg/kg and male Wistar Han rats at a dose level of about 50 mg/kg. The pharmacokinetic profiles were determined, and the results for dogs are summarized in Table and Table, while the results for rats are summarized in Table and Table below.
A solution of about 500 mg/mL of the compound of Formula (Ia) having 14.06 w/w % water, 30.12 w/w % PEG 300, […] of a sodium salt of a compound of Formula (Ia), 5.00 w/w % ethanol, and 6.40 w/w % poloxamer 188 was prepared. The solution was administered subcutaneously to male beagle dogs at a dose level of about 12 mg/kg and male Wistar Han rats at a dose level of about 50 mg/kg. The pharmacokinetic profiles were determined, and the results for dogs are summarized in Table and Table, while the results for rats are summarized in Table and Table below.
A solution of about 300 mg/mL of the compound of Formula (Ia) having 23.33 w/w % water, 48.99 w/w % PEG 300, 26.47 w/w % of a sodium salt of a compound of Formula (Ia), and 1.21 w/w % poloxamer 188 was prepared. The solution was administered subcutaneously to male beagle dogs at a dose level of about 6 mg/kg and male Wistar Han rats at a dose level of about 50 mg/kg. The pharmacokinetic profiles were determined, and the results for dogs are summarized in Table and Table, while the results for rats are summarized in Table and Table below.
A solution of about 400 mg/mL of the compound of Formula (Ia) having 18.80 w/w % water, 40.25 w/w % PEG 300, 34.38 w/w % of a sodium salt of a compound of Formula (Ia), 5.00 w/w % ethanol, and 1.57 w/w % poloxamer 188 was prepared. The solution was administered subcutaneously to male beagle dogs at a dose level of about 12 mg/kg and male Wistar Han rats at a dose level of about 50 mg/kg. The pharmacokinetic profiles were determined, and the results for dogs are summarized in Table and Table, while the results for rats are summarized in Table and Table below.
A solution of about 500 mg/mL of the compound of Formula (Ia) having 16.29 w/w % water, 34.88 w/w % PEG 300, 41.92 w/w % of a sodium salt of a compound of Formula (Ia), 5.00 w/w % ethanol, and 1.91 w/w % poloxamer 188 was prepared. The solution was administered subcutaneously to male beagle dogs at a dose level of about 12 mg/kg and male Wistar Han rats at a dose level of about 50 mg/kg. The pharmacokinetic profiles were determined, and the results for dogs are summarized in Table and Table, while the results for rats are summarized in Table and Table below.
A solution of about 400 mg/mL of the compound of Formula (Ia) having 20.90 w/w % water, 44.72 w/w % PEG 300, and 34.38 w/w % of a sodium salt of a compound of Formula (Ia) was prepared. […]

Q: What does the source list for `CC(C)(C#Cc1ccc(-c2ccc(Cl)c3c(NS(C)(=O)=O)nn(CC(F)(F)F)c23)c([C@H](Cc2cc(F)cc(F)c2)NC(=O)Cn2nc(C(F)(F)F)c3c2C(F)(F)[C@@H]2C[C@H]32)n1)S(C)(=O)=O` [compound of Formula (Ia)]?
A: Plasma concentration (0 h, individual rats, solution R, 400 mg/mL): BLQ; Plasma concentration (0 h, individual rats, solution S, 500 mg/mL): BLQ; Plasma concentration (0 h, individual rats, solution T, 400 mg/mL): BLQ; Plasma concentration (0 h, individual rats, solution U, 500 mg/mL): BLQ; Plasma concentration (0 h, individual rats, solution V, 300 mg/mL): BLQ; Plasma concentration (1.00 h, individual rats, solution R, 400 mg/mL, 50 mg/kg): 59.3 nM and 42.4 nM; Plasma concentration (3.00 h, individual rats, solution R, 400 mg/mL, 50 mg/kg): 164 nM and 104 nM; Plasma concentration (3.00 h, individual rats, solution S, 500 mg/mL, 50 mg/kg): 72.7 nM and 118 nM; Plasma concentration (8.00 h, individual rats, solution R, 400 mg/mL, 50 mg/kg): 131 nM and 84.1 nM; Plasma concentration (8.00 h, individual rats, solution S, 500 mg/mL, 50 mg/kg): 82.0 nM and 127 nM; Plasma concentration (24.0 h, individual rats, solution R, 400 mg/mL, 50 mg/kg): 194 nM and 125 nM; Plasma concentration (24.0 h, individual rats, solution S, 500 mg/mL, 50 mg/kg): 138 nM and 133 nM; Plasma concentration (48.0 h, individual rats, solution R, 400 mg/mL, 50 mg/kg): 162 nM and 107 nM; Plasma concentration (48.0 h, individual rats, solution S, 500 mg/mL, 50 mg/kg): 158 nM and 119 nM; Plasma concentration (72.0 h, individual rats, solution R, 400 mg/mL, 50 mg/kg): 154 nM and 123 nM; Plasma concentration (72.0 h, individual rats, solution S, 500 mg/mL, 50 mg/kg): 166 nM and 120 nM; Plasma concentration (96.0 h, individual rats, solution R, 400 mg/mL, 50 mg/kg): 162 nM and 112 nM; Plasma concentration (96.0 h, individual rats, solution S, 500 mg/mL, 50 mg/kg): 149 nM and 107 nM; Plasma concentration (168 h, individual rats, solution R, 400 mg/mL, 50 mg/kg): 166 nM and 124 nM; Plasma concentration (168 h, individual rats, solution S, 500 mg/mL, 50 mg/kg): 121 nM and 82.3 nM; Plasma concentration (336 h, individual rats, solution R, 400 mg/mL, 50 mg/kg): 275 nM and 256 nM; Plasma concentration (336 h, individual rats, solution S, 500 mg/mL, 50 mg/kg): 277 nM and 140 nM and 131 nM; Plasma concentration (504 h, individual rats, solution R, 400 mg/mL, 50 mg/kg): 319 nM and 393 nM; Plasma concentration (504 h, individual rats, solution S, 500 mg/mL, 50 mg/kg): 211 nM and 235 nM; Plasma concentration (672 h, individual rats, solution R, 400 mg/mL, 50 mg/kg): 286 nM and 442 nM; Plasma concentration (672 h, individual rats, solution S, 500 mg/mL, 50 mg/kg): 254 nM and 227 nM; Plasma concentration (840 h, individual rats, solution R, 400 mg/mL, 50 mg/kg): 313 nM and 443 nM; Plasma concentration (840 h, individual rats, solution S, 500 mg/mL, 50 mg/kg): 221 nM and 250 nM; Plasma concentration (1008 h, individual rats, solution R, 400 mg/mL, 50 mg/kg): 318 nM and 442 nM; Plasma concentration (1008 h, individual rats, solution S, 500 mg/mL, 50 mg/kg): 479 nM and 207 nM and 215 nM; Plasma concentration (1334 h, individual rats, solution R, 400 mg/mL, 50 mg/kg): 266 nM and 421 nM; Plasma concentration (1334 h, individual rats, solution S, 500 mg/mL, 50 mg/kg): 254 nM and 248 nM; Plasma concentration (1680 h, individual rats, solution R, 400 mg/mL, 50 mg/kg): 233 nM and 328 nM; Plasma concentration (1680 h, individual rats, solution S, 500 mg/mL, 50 mg/kg): 216 nM and 189 nM; Plasma concentration (2016 h, individual rats, solution R, 400 mg/mL, 50 mg/kg): 181 nM and 227 nM; Plasma concentration (2016 h, individual rats, solution S, 500 mg/mL, 50 mg/kg): 158 nM and 133 nM; Plasma concentration (2352 h, individual rats, solution R, 400 mg/mL, 50 mg/kg): 182 nM; Plasma concentration (2352 h, individual rats, solution S, 500 mg/mL, 50 mg/kg): 170 nM and 119 nM; Plasma concentration (2688 h, individual rats, solution R, 400 mg/mL, 50 mg/kg): 146 nM and 147 nM; Plasma concentration (2688 h, individual rats, solution S, 500 mg/mL, 50 mg/kg): 148 nM and 126 nM; Plasma concentration (3024 h, individual rats, solution R, 400 mg/mL, 50 mg/kg): 118 nM and 111 nM; Plasma concentration (3360 h, individual rats, solution R, 400 mg/mL, 50 mg/kg): 116 nM and 84.7 nM; Plasma concentration (3696 h, individual rats, solution R, 400 mg/mL, 50 mg/kg): 117 nM and 109 nM and 58.4 nM; Plasma concentration (4032 h, individual rats, solution R, 400 mg/mL, 50 mg/kg): 109 nM and 136 nM and 59.5 nM; Plasma concentration (4704 h, individual rats, solution R, 400 mg/mL, 50 mg/kg): 84.4 nM and 92.7 nM and 29.9 nM; Plasma concentration (5376 h, individual rats, solution R, 400 mg/mL, 50 mg/kg): 62.6 nM and 90.4 nM and 20.9 nM; Plasma concentration (6048 h, individual rats, solution R, 400 mg/mL, 50 mg/kg): 27.4 nM and 48.6 nM and 14.6 nM; Plasma concentration (6720 h, individual rats, solution R, 400 mg/mL, 50 mg/kg): 22.7 nM and 45.8 nM and 10.4 nM; Plasma concentration (7392 h, individual rats, solution R, 400 mg/mL, 50 mg/kg): 13.5 nM and 28.6 nM and 7.43 nM; Plasma concentration (8064 h, individual rats, solution R, 400 mg/mL, 50 mg/kg): 8.39 nM and 24.1 nM and 4.52 nM; concentration at 1 h (50 mg/kg, 1.00 h, individual rats, solution R, 400 mg/mL): 67.6 nM; concentration at 1 h (50 mg/kg, 1.00 h, individual rats, solution U, 500 mg/mL): 42.6 nM; concentration at 1 h (50 mg/kg, 1.00 h, individual rats, solution V, 300 mg/mL): 51.4 nM; concentration at 1 h (50 mg/kg, 1.00 h, mean, n = 3 rats, solution R, 400 mg/mL): 56.4 nM; concentration at 1 h (50 mg/kg, 1.00 h, mean, n = 3 rats, solution S, 500 mg/mL): 49.2 nM; concentration at 1 h (50 mg/kg, 1.00 h, mean, n = 3 rats, solution V, 300 mg/mL): 51.4 nM; concentration at 1 h (50 mg/kg, 1.00 h, mean, n = 5 rats, solution T, 400 mg/mL): 56.4 nM; concentration at 1 h (50 mg/kg, 1.00 h, mean, n = 5 rats, solution U, 500 mg/mL): 50.5 nM; concentration at 3 h (50 mg/kg, 3.00 h, individual rats, solution R, 400 mg/mL): 128 nM; concentration at 3 h (50 mg/kg, 3.00 h, individual rats, solution S, 500 mg/mL): 87.6 nM; concentration at 3 h (50 mg/kg, 3.00 h, individual rats, solution T, 400 mg/mL): 128 nM; concentration at 3 h (50 mg/kg, 3.00 h, individual rats, solution V, 300 mg/mL): 141 nM; concentration at 3 h (50 mg/kg, 3.00 h, mean, n = 3 rats, solution R, 400 mg/mL): 132 nM; concentration at 3 h (50 mg/kg, 3.00 h, mean, n = 3 rats, solution S, 500 mg/mL): 92.8 nM; concentration at 3 h (50 mg/kg, 3.00 h, mean, n = 3 rats, solution V, 300 mg/mL): 116 nM; concentration at 3 h (50 mg/kg, 3.00 h, mean, n = 5 rats, solution T, 400 mg/mL): 135 nM; concentration at 3 h (50 mg/kg, 3.00 h, mean, n = 5 rats, solution U, 500 mg/mL): 110 nM; concentration at 8 h (50 mg/kg, 8.00 h, individual rats, solution R, 400 mg/mL): 120 nM; concentration at 8 h (50 mg/kg, 8.00 h, individual rats, solution S, 500 mg/mL): 92 nM
